Patent US20130109643A1, “METABOLIC INHIBITOR AGAINST TUMORS HAVING AN IDH MUTATION” (The Johns Hopkins University, priority 2010, published 2013)

How the values were obtained:
[1] = test system: D54 glioblastoma cells overexpressing WT or R132H IDH1; assay: alamarBlue cell growth assay, D54 glioblastoma lines overexpressing WT or R132H IDH1; type: cell-based, human
Protocol: (§1) Standard techniques were used to introduce the R132H mutation into human IDH1 engineered with a 6×-His-tag and produce lentivirus containing either WT or mutant IDH1. D54 cells or transformed normal human astrocytes (TNA) were transduced with virus, and lines were grown from individual cells using limiting dilution. IDH1 expression in response to […] doxycycline was confirmed using a 6×-His tag antibody (Millipore). Liquid chromatography/mass spectrometry was conducted as previously described. Dang L., et al., Cancer-associated IDH1 mutations produce 2-hydroxyglutarate. Nature 2009; 462:739-44. siRNA was used to knock down glutaminase, and cells were assessed for knockdown using Western blotting. Gao P., et al., c-Myc suppression of miR-23a/b enhances mitochondria/glutaminase expression and glutamine metabolism. Nature 2009; 458:762-5. Cell growth assays using alamarBlue were carried out as described following DMSO or bis-2-(5-phenylacetamido-1,2,4-thiadiazol-2-yl)ethyl sulfide (BPTES) treatment. Liolome W., et al., Glioblastoma cell growth is suppressed by disruption of Fibroblast Growth Factor pathway signaling. J Neurooncol 2009:94:359-66. […] [3H]-glutamate was isolated from the reaction mixture using anion exchange and measured using a scintillation counter. […] Data were evaluated using a two-tailed Student's t-test. P≦0.05 was considered significant.
D54 or TNA cells were transduced with virus containing WT or R132H IDH1. D54 cells were transduced using virus containing pLVCT-tTR-KRAB constructs, and TNA were transduced with virus containing Duet011 constructs. Lines were grown from individual cells using limiting dilution and tested for IDH1 expression. Expression was confirmed using Western blot and 6×-His-tag antibodies (Millipore). 0.04 μg/mL doxycycline was used to induce expression for D54 lines. Cells were maintained in DMEM, 10% FBS, 4.5 g/L glucose, and penicillin/streptomycin. Transformed normal human astrocytes (TNA) were a gift from Christopher M. Counter.
Cell growth assays using alamarBlue were carried out as described. Loilome W., et al., Glioblastoma cell growth is suppressed by disruption of Fibroblast Growth Factor pathway signaling. J Neurooncol 2009; 94(3):359-66. Cells were plated at a density of 500 cells/well in a 96-well black clear bottom plate (Becton Dickinson).

[2] = test system: primary acute myelogenous leukemia (AML) cells with mutant or wild-type IDH1; assay: Growth curves of primary AML cells (trypan blue counting); type: cell-based, human; conditions: BPTES at 20 or 40 μM vs DMSO vehicle
Protocol: Primary AML cells were cultured in RPMI-1640 media with 20% fetal bovine serum (FBS), 20% 5637 cell-conditioned media and 1% antibiotics as previously described (Miyauchi et al., 1987). Growth curves were generated by manual counting of viable cells as assessed by trypan blue exclusion on a hemocytometer. The detail of the procedure is as following: (1) The frozen cells are thawed and added into 10 mL of the media in a tissue culture flask and grown in a humidified incubator at 37° C. and 5% CO2 for 4-5 days. Cells were counted every 24-48 h to estimate the cells needed for the experiment. […] Then, 10-20 mL media containing each desired concentration of the drug were prepared. […] By doing this, the concentration of DMSO is constant and not more than 0.1%. BPTES is precipitated in PBS, so avoid dilution with PBS. […] When the cells were well homogenized, they were counted by 1:1 trypan blue exclusion with hemocytometer. […] The starting number for each cell line among control/DMSO/drug must be the same and is calculated based on the count from the cell-containing PBS solution. […] (6) Cells were counted every other day using a hemocytometer after staining with trypan blue (1:1). […] Cells were counted in the 4 outer squares of the hemocytometer, and the number was divided by 2 (=n). […] When cell concentration was low, more grids were counted and the cell concentrations were calculated accordingly.

[3] = test system: D54 cells overexpressing WT or R132H IDH1; assay: LC/MS metabolite levels in WT and mutant IDH1 D54 cells; type: cell-based, human; conditions: 10 mmol/L BPTES, 48 hours
Protocol: as §1
3×10^5 (untreated) or 7.5×10^5 (BPTES-treated) cells were seeded in a T75 flask. 24 hrs post-plating, media on the cells was changed to 4.5 g/L glucose, 10% HyClone dialyzed FBS (ThermoScientific), penicillin/streptomycin, 4 mM glutamine and 0.04 μg/mL doxycycline to induce IDH1 expression. […] Metabolites were measured in one of two ways: using a reverse phase column with tributylamine as an ion pairing agent, Luo B., et al., Simultaneous determination of multiple intracellular metabolites in glycolysis, pentose phosphate pathway and tricarboxylic acid cycle by liquid chromatography-mass spectrometry. J Chromatogr 2007; 1147(2):153-64, coupled to a Thermo Exactive Mass Spectrometer operating at 100,000 resolving power using a mass range of ±5 ppm or single reaction monitoring on a Thermo TSQ Quantum Triple Quadrupole Mass Spectrometer coupled to an aminopropyl HPLC column. Bajad S. U., et al., Separation and quantitation of water soluble cellular metabolites by hydrophilic interaction chromatography-tandem mass spectrometry. J Chromatogr 2006; 1125(1):76-88. Signals were normalized to cell number prior to data analysis.

[4] = test system: transformed normal human astrocytes (TNA) overexpressing R132H or WT IDH1; assay: alamarBlue cell growth assay, transformed normal human astrocytes (TNA) expressing WT or R132H IDH1; type: cell-based; conditions: 48 hours
Protocol: as §1, with “significant. […]” for “significant.”

[5] = test system: mutant IDH1 cells; assay: Caspase 3/7 activation assay (Caspase-Glo 3/7); type: cell-based, human; conditions: 10 μM BPTES, 24 hrs, vs DMSO
Protocol: Cells were plated at a density of 5000 cells/well in a 96-well black clear bottom plate (Becton Dickinson). 24 hrs after plating, media was changed to fresh media with or without 0.04 μg/mL doxycycline.

[6] = test system: mutant IDH1 cells; assay: Annexin V staining (flow cytometry); type: cell-based, human; conditions: 10 μM BPTES, 24 hrs, vs DMSO
Protocol: Cells were plated at a density of 2×10^5 cells/well in a 6-well plate. Media was changed to media with or without doxycyline 24 hrs after plating.

Structure (SMILES): O=C(O[C@@H]1Cc2c(O)cc(O)cc2O[C@@H]1c1cc(O)c(O)c(O)c1)c1cc(O)c(O)c(O)c1 [EGCG, epigallocatechin gallate]
- sensitivity of growth, mutant vs WT IDH1 cells ([1]; EGCG, 0.1 g/L glucose, 72 hrs): more sensitive

Structure (SMILES): COC(=O)CCC(=O)C(=O)OC [dimethyl-α-ketoglutarate]
- rescue of BPTES growth inhibition at higher BPTES concentrations ([1]; 1 mmol/L dimethyl-α-ketoglutarate, 50 or 100 mmol/L BPTES): not blocked
- rescue of BPTES growth inhibition ([1]; mutant IDH1 cells, 1 mmol/L dimethyl-α-ketoglutarate added to BPTES): significantly reduced growth inhibition

Structure (SMILES): NOCC(=O)O [AOA, amino-oxyacetic acid]
- sensitivity of growth, mutant vs WT IDH1 cells ([1]; AOA, 1.5 g/L glucose, 48 hrs): more sensitive

Structure (SMILES): O=C(Cc1ccccc1)Nc1nnc(CCSCCc2nnc(NC(=O)Cc3ccccc3)s2)s1 [BPTES]
- cell killing, mIDH1 vs wild-type AML cells [2]: selectively kills
- levels of glycolytic intermediates (fructose-1,6-bisphosphate, dihydroxy-acetone-phosphate, 3-phosphoglycerate) [3]: increased
- tricarboxylic acid cycle intermediates (succinate and malate) and aspartate levels [3]: decreases
- citrate levels ([3]; WT IDH1 cells): decreased
- glutamate levels ([3]; WT and mutant IDH1 cells): diminished
- α-KG levels ([3]; WT and mutant IDH1 cells): diminished
- citrate levels ([3]; mutant IDH1 cells): increased
- 2-HG levels ([3]; treated mutant IDH1 cells): remained unchanged
- sensitivity of growth, mutant vs WT IDH1 cells [4]: mutant IDH1 cells also were more sensitive
- Caspase 3/7 induction [5]: does not increase
- effect on growth, mutant vs WT IDH1 cells ([1]; D54+R132H compared with D54 and D54+WT IDH1, 48 hours): preferentially slowed growth of mutant IDH1 cells
- growth reduction ([1]; mutant IDH1 D54 cells, 48 hours): about 20%
- Annexin V staining [6]: does not increase
